The results in this text go back to patent US6294527A, “Cephem compounds” (Zenyaku Kogyo Kabushiki Kaisha, priority 1996, dated 2001).

SMILES strings stand for the structures. Converted amounts (≈) assume the structure as drawn. Structures can show the parent of a compound that is named as a salt. Where two headings read alike, the source gives them in different places.

Experiment [1] concerns vancomycin-resistant enterococci (E. faecalis NCTC-12201). Put plainly: Agar plate dilution MIC, vancomycin-resistant enterococci E. faecalis NCTC-12201. Type of experiment: cell-based. The following applies: Enterococcus faecalis. On the procedure:
(§1) Antibacterial test was performed in substantial accordance with agar plate dilution method based on Standard method of The Japan Society of Chemotherapy to determine minimum inhibitory concentration (MIC) of the respective test compounds against Staphylococcus aureus (S. aureus FDA 209P) and vancomycin-resistant enterococci (E. faecalis NCTC-12201). Also determined was MIC80 on clinically separated strains (27 strains) of MRSA. The inoculated amount was 10^6 CFU/ml and flomoxef (FMOX) and vancomycin (VCM) were used as controls.

For experiment [2], the system named is Staphylococcus aureus (S. aureus FDA 209P). The experiment can be described thus: Agar plate dilution MIC, Staphylococcus aureus FDA 209P. Type of experiment: cell-based. Conditions: FDA209P, read-out: MIC S. aureus FDA 209P. On the procedure: as §1
Where [3] appears, read: NCTC12201, agar plate dilution, inoculum 10^6 CFU/ml, vancomycin-resistant, read-out: MIC E. faecalis NCTC-12201.
[4] abbreviates: agar plate dilution, inoculum 10^6 CFU/ml.

One may read the MIC as the smallest concentration in the dilution series that meets the test's criterion for growth inhibition. Take `O=C(Cc1cccs1)N[C@@H]1C(=O)N2C(C(=O)O)=C(C=CSc3cc(=O)c4c(C(F)(F)F)cccc4s3)CS[C@H]12` [compound 5, 7-[2-(2-thienyl)acetamide]-3-[2-(4-oxo-5-trifluoromethyl-4H-1-benzothiopyran-2-yl)thiovinyl]-3-cephem-4-carboxylic acid]: the MIC came to 1.56 mg/L (≈ 2.55 µM) in experiment [1] (setting [3]) and 0.05 mg/L (≈ 0.0819 µM) in experiment [2] (setting [4]).

For the molecule `O=C(Cc1cccs1)N[C@@H]1C(=O)N2C(C(=O)O)=C(C=CSc3sc4ccsc4c(=O)c3Br)CS[C@H]12` [compound 25, 7-[2-(2-thienyl)acetamide]-3-[2-(6-bromo-7-oxo-7H-thieno[3,2-b]thiopyran-5-yl)thiovinyl]-3-cephem-4-carboxylic acid], the MIC in experiment [1] (setting [3]) was determined as 0.78 mg/L (≈ 1.24 µM); in experiment [2] (setting [4]), 0.013 mg/L (≈ 0.0207 µM).

Regarding `COc1ccc2c(=O)cc(SC=CC3=C(C(=O)O)N4C(=O)[C@@H](NC(=O)Cc5cccs5)[C@H]4SC3)sc2c1` [compound 4, 7-[2-(2-thienyl)acetamide]-3-[2-(7-methoxy-4-oxo-4H-1-benzothiopyran-2-yl)thiovinyl]-3-cephem-4-carboxylic acid], the minimum inhibitory concentration (MIC) in experiment [1] (setting [3]) amounted to 1.56 mg/L (≈ 2.72 µM); in experiment [2] (setting [4]) it was 0.1 mg/L (≈ 0.175 µM).

Turning to `O=C(Cc1cccs1)N[C@@H]1C(=O)N2C(C(=O)O)=C(C=CSc3cc(=O)c4cc(F)c(F)c(F)c4s3)CS[C@H]12` [compound 7, 7-[2-(2-thienyl)acetamide]-3-[2-(6,7,8-trifluoro-4-oxo-4H-1-benzothiopyran-2-yl)thiovinyl]-3-cephem-4-carboxylic acid], the minimum inhibitory concentration (MIC) in experiment [1] (setting [3]) stood at 0.78 mg/L (≈ 1.31 µM); in experiment [2] (setting [4]), 0.025 mg/L (≈ 0.0419 µM).

`Nc1nc(/C(=N/O)C(=O)N[C@@H]2C(=O)N3C(C(=O)O)=C(C=CSc4cc(=O)c5occc5s4)CS[C@H]23)cs1` [compound 17, 7-[2-hydroxyimino-2-(2-aminothiazol-4-yl)acetamide]-3-[2-(7-oxo-7H-thiopyrano[3,2-b]furan-5-yl)thiovinyl]-3-cephem-4-carboxylic acid]: the MIC in experiment [1] (setting [3]) came out at 6.25 mg/L (≈ 10.8 µM); in experiment [2] (setting [4]), 0.39 mg/L (≈ 0.675 µM).

For the molecule `O=C(Cc1cccs1)N[C@@H]1C(=O)N2C(C(=O)O)=C(C=CSc3cc(=O)c4cccnc4s3)CS[C@H]12` [compound 30, 7-[2-(2-thienyl)acetamide]-3-[2-(4-oxo-4H-thiopyrano[2,3-b]pyridin-2-yl)thiovinyl]-3-cephem-4-carboxylic acid], the MIC was 6.25 mg/L (≈ 11.5 µM) in experiment [1] (setting [3]) and at most 0.006 mg/L in experiment [2] (setting [4]).

As for `O=C(Cc1cccs1)N[C@@H]1C(=O)N2C(C(=O)O)=C(C=CSc3cc(=O)c4cc(Cl)sc4s3)CS[C@H]12` [compound 21, 7-[2-(2-thienyl)acetamide]-3-[2-(2-chloro-4-oxo-4H-thieno[2,3-b]thiopyran-6-yl)thiovinyl]-3-cephem-4-carboxylic acid], the minimal inhibitory concentration (MIC) in experiment [1] (setting [3]) was 1.56 mg/L (≈ 2.68 µM); in experiment [2] (setting [4]), 0.025 mg/L (≈ 0.0429 µM).

In the case of `CO[C@@]1(NC(=O)CSC(F)F)C(=O)N2C(C(=O)O)=C(CSc3nnnn3CCO)CO[C@@H]21` [FMOX, flomoxef, reference compound], the figures for the MIC in experiment [1] (setting [3]) and in experiment [2] (setting [4]) were over 100 mg/L and 0.2 mg/L (≈ 0.403 µM), respectively.

Take `CN[C@H](CC(C)C)C(=O)N[C@H]1C(=O)N[C@@H](CC(N)=O)C(=O)N[C@H]2C(=O)N[C@H]3C(=O)N[C@H](C(=O)N[C@H](C(=O)O)c4cc(O)cc(O)c4-c4cc3ccc4O)[C@H](O)c3ccc(c(Cl)c3)Oc3cc2cc(c3O[C@@H]2O[C@H](CO)[C@@H](O)[C@H](O)[C@H]2O[C@H]2C[C@](C)(N)[C@H](O)[C@H](C)O2)Oc2ccc(cc2Cl)[C@H]1O` [VCM, vancomycin, reference compound]: the MIC in experiment [1] (NCTC12201, read-out: MIC E. faecalis NCTC-12201) was over 1000 mg/L; in experiment [2] it was 0.78 mg/L (≈ 0.538 µM).

As to `O=C(Cc1cccs1)N[C@@H]1C(=O)N2C(C(=O)O)=C(C=CSc3cc(=O)c4sccc4s3)CS[C@H]12` [compound 20, 7-[2-(2-thienyl)acetamide]-3-[2-(7-oxo-7H-thieno[3,2-b]thiopyran-5-yl)thiovinyl]-3-cephem-4-carboxylic acid], the minimal inhibitory concentration (MIC) in experiment [1] (setting [3]) came to 1.56 mg/L (≈ 2.84 µM); in experiment [2] (setting [4]) it was 0.025 mg/L (≈ 0.0456 µM).

Take `O=C(Cc1cccs1)N[C@@H]1C(=O)N2C(C(=O)O)=C(C=CSc3cc(=O)c4ccc(N5CCNCC5)cc4s3)CS[C@H]12` [compound 22, 7-[2-(2-thienyl)acetamide]-3-[2-(4-oxo-7-(piperazin-1-yl)-4H-1-benzothiopyran-2-yl)thiovinyl]-3-cephem-4-carboxylic acid.hydrochloride]: the MIC was 6.25 mg/L in experiment [1] (setting [3]) and at most 0.006 mg/L in experiment [2] (setting [4]).

In the case of `Nc1nc(/C(=N/O)C(=O)N[C@@H]2C(=O)N3C(C(=O)O)=C(C=CSc4cc(=O)c5ccccc5s4)CS[C@H]23)cs1` [compound 11, sodium 7-[2-hydroxyimino-2-(2-aminothiazol-4-yl)acetamide]-3-[2-(4-oxo-4H-1-benzothiopyran-2-yl)thiovinyl]-3-cephem-4-carbonate], the MIC was 1.56 mg/L in experiment [1] (setting [3]) and 0.1 mg/L in experiment [2] (setting [4]).

With `Nc1nc(/C(=N/O)C(=O)N[C@@H]2C(=O)N3C(C(=O)O)=C(C=CSc4cc(=O)c5sccc5s4)CS[C@H]23)cs1` [compound 23, 7-[2-hydroxyimino-2-(2-aminothiazol-4-yl)acetamide]-3-[2-(7-oxo-7H-thieno[3,2-b]thiopyran-5-yl)thiovinyl]-3-cephem-4-carboxylic acid], the MIC in experiment [1] (setting [3]) was 3.13 mg/L (≈ 5.27 µM); in experiment [2] (setting [4]), 0.1 mg/L (≈ 0.168 µM).

With `Nc1nc(/C(=N/O)C(=O)N[C@@H]2C(=O)N3C(C(=O)O)=C(C=CSc4cc(=O)c5ccc(F)cc5s4)CS[C@H]23)cs1` [compound 18, 7-[2-hydroxyimino-2-(2-aminothiazol-4-yl)acetamide]-3-[2-(7-fluoro-4-oxo-4H-1-benzothiopyran-2-yl)thiovinyl]-3-cephem-4-carboxylic acid], the minimum inhibitory concentration (MIC) worked out at 6.25 mg/L (≈ 10.3 µM) in experiment [1] (setting [3]) and 0.39 mg/L (≈ 0.644 µM) in experiment [2] (setting [4]).

For the molecule `O=C(Cc1cccs1)N[C@@H]1C(=O)N2C(C(=O)O)=C(C=CSc3cc(=O)c4scc([N+](=O)[O-])c4s3)CS[C@H]12` [compound 26, 7-[2-(2-thienyl)acetamide]-3-[2-(3-nitro-7-oxo-7H-thieno[3,2-b]thiopyran-5-yl)thiovinyl]-3-cephem-4-carboxylic acid], the minimal inhibitory concentration (MIC) was 1.56 mg/L (≈ 2.63 µM) in experiment [1] (setting [3]) and 0.025 mg/L (≈ 0.0421 µM) in experiment [2] (setting [4]).

Consider `O=C(Cc1cccs1)N[C@@H]1C(=O)N2C(C(=O)O)=C(C=CSc3cc(=O)c4ccccc4s3)CS[C@H]12` [compound 1, 7-[2-(2-thienyl)acetamide]-3-[2-(4-oxo-4H-1-benzothiopyran-2-yl)thiovinyl]3-cephem-4-carboxylic acid], for which the figures for the MIC in experiment [1] (setting [3]) and in experiment [2] (setting [4]) were 3.13 mg/L (≈ 5.77 µM) and 0.2 mg/L (≈ 0.369 µM), respectively.

Regarding `O=C(Cc1cccs1)N[C@@H]1C(=O)N2C(C(=O)O)=C(C=CSc3cc(=O)c4ccc(N5CCCCC5)cc4s3)CS[C@H]12` [compound 19, 7-[2-(2-thienyl)acetamide]-3-[2-(4-oxo-7-piperidino-4H-1-benzothiopyran-2-yl)thiovinyl]-3-cephem-4-carboxylic acid], the minimum inhibitory concentration (MIC) in experiment [1] (setting [3]) amounted to 3.13 mg/L (≈ 5 µM); in experiment [2] (setting [4]), 0.1 mg/L (≈ 0.16 µM).

For `O=C(Cc1cccs1)N[C@@H]1C(=O)N2C(C(=O)O)=C(C=CSc3cc(=O)c4nccnc4s3)CS[C@H]12` [compound 24, 7-[2-(2-thienyl)acetamide]-3-[2-(8-oxo-8H-thiopyrano[2,3-b]pyrazin-6-yl)thiovinyl]-3-cephem-4-carboxylic acid], the minimum inhibitory concentration (MIC) is 3.13 mg/L (≈ 5.75 µM) in experiment [1] (setting [3]) and at most 0.006 mg/L in experiment [2] (setting [4]).

Turning to `N=C(N)SCc1ccc2c(=O)cc(SC=CC3=C(C(=O)O)N4C(=O)[C@@H](NC(=O)Cc5cccs5)[C@H]4SC3)sc2c1` [compound 28, 7-[2-(2-thienyl)acetamide]-3-[2-(7-isothiuroniummethyl-4-oxo-4H-1-benzothiopyran-2-yl)thiovinyl]-3-cephem-4-carboxylic acid.formate], the MIC in experiment [1] (setting [3]) is 6.25 mg/L; in experiment [2] (setting [4]), 0.0254 mg/L.

With `NCc1c(SC=CC2=C(C(=O)O)N3C(=O)[C@@H](NC(=O)Cc4cccs4)[C@H]3SC2)sc2sc(Cl)cc2c1=O` [compound 31, 7-[2-(2-thienyl)acetamide]-3-[2-(5-aminomethyl-2-chloro-4-oxo-4H-thieno[2,3-b]thiopyran-6-yl)thiovinyl]-3-cephem-4-carboxylic acid.trifluoroacetate], the MIC came to 3.13 mg/L in experiment [1] (setting [3]) and 0.1 mg/L in experiment [2] (setting [4]).

On to `O=C(Cc1cccs1)N[C@@H]1C(=O)N2C(C(=O)O)=C(C=CSc3cc(=O)c4ccc(N5CCOCC5)cc4s3)CS[C@H]12` [compound 10, 7-[2-(2-thienyl)acetamide]-3-[2-(7-morpholino-4-oxo-4H-1-benzothiopyran-2-yl)thiovinyl]-3-cephem-4-carboxylic acid], for which the minimum inhibitory concentration (MIC) in experiment [1] (setting [3]) was 6.25 mg/L (≈ 9.96 µM); in experiment [2] (setting [4]), 0.05 mg/L (≈ 0.0796 µM).

Take `O=C(Cc1cccs1)N[C@@H]1C(=O)N2C(C(=O)O)=C(C=CSc3cc(=O)c4occc4s3)CS[C@H]12` [compound 9, 7-[2-(2-thienyl)acetamide]-3-[2-(7-oxo-7H-thiopyrano[3,2-b]furan-5-yl)thiovinyl]-3-cephem-4-carboxylic acid]: the MIC is 3.13 mg/L (≈ 5.88 µM) in experiment [1] (setting [3]) and 0.025 mg/L (≈ 0.0469 µM) in experiment [2] (setting [4]).

For `O=C(Cc1cccs1)N[C@@H]1C(=O)N2C(C(=O)O)=C(C=CSc3cc(=O)c4ccc(F)cc4s3)CS[C@H]12` [compound 2, 7-[2-(2-thienyl)acetamide]-3-[2-(7-fluoro-4-oxo-4H-1-benzothiopyran-2-yl)thiovinyl]-3-cephem-4-carboxylic acid], the figures for the MIC in experiment [1] (setting [3]) and in experiment [2] (setting [4]) were 0.78 mg/L (≈ 1.39 µM) and 0.05 mg/L (≈ 0.0892 µM), respectively.

Turning to `O=C(Cc1ccccc1)N[C@@H]1C(=O)N2C(C(=O)O)=C(C=CSc3cc(=O)c4ccccc4s3)CS[C@H]12` [compound 27, 7-(2-phenylacetamide)-3-[2-(4-oxo-4H-1-benzothiopyran-2-yl)thiovinyl]-3-cephem-4-carboxylic acid], the minimum inhibitory concentration (MIC) in experiment [1] (setting [3]) was 3.13 mg/L (≈ 5.83 µM); in experiment [2] (setting [4]), 0.025 mg/L (≈ 0.0466 µM).
